The source of these data is patent publication US10051861B2, “N-arylamidine-substituted trifluoroethyl sulfide derivatives as acaricides and insecticides” (BAYER CROPSCIENCE AG, priority 2011, dated 2018).

The subject of one experiment is greenhouse red spider mite (Tetranychus urticae). Put plainly: Tetranychus urticae spray test, OP-resistant (TETRUR), bean leaf disks. It is filed as in vivo. The conditions noted are these: Tetranychus urticae, foliar, 144 h, application rate 100 g/ha, after 6 days; read-out: efficacy (spider mites killed). The method, then: After 6 days, the effect in % is determined.
As for `Cc1cc(F)c(/N=C(\N)c2cccs2)cc1SCC(F)(F)F` [Ia-181], the pest or weed control at 100 g/ha turned out to be 90%.
Same read-out and setting: as for `Cc1cc(F)c(/N=C(\N)C2(Cl)CC2)cc1SCC(F)(F)F` [Ia-58], the figure is 100%.

The experiment is the same for the next values; noted with them: Tetranychus urticae, foliar, 144 h, application rate 500 g/ha, after 6 days; read-out: efficacy (spider mites killed).
Turning to `Cc1cc(F)c(/N=c2\sc(C)c(C)n2CC(F)(F)F)cc1[S+]([O-])CC(F)(F)F` (centres unmarked) [Ib-158], the pest or weed control at 500 g/ha turned out to be 90%.
Still for that read-out and setting: to `Cc1cc(C)c([S+]([O-])CC(F)(F)F)cc1/N=C(\N)c1ccc(Cl)nc1` (centres unmarked) [Ib-94] belongs 100%; to `Cc1cc(F)c(/N=C2\CCCN2C(C)C(F)(F)F)cc1SCC(F)(F)F` (centres unmarked) [Ia-201], 100%; to `CN/C(=N/c1cc(SCC(F)(F)F)c(Cl)cc1F)C(F)(F)F` [Ia-52], 100%.
The same measure, in the same setting: as for `Cc1cc(F)c(/N=C(/NC2(C)CC2)C(F)(F)F)cc1SCC(F)(F)F` [Ia-85], the figure is 100%.
Still for that read-out and setting: to `CN/C(=N\c1cc(SCC(F)(F)F)c(Cl)cc1Cl)c1ccc(Cl)nc1` [Ia-152] belongs 100%; to `CN/C(=N\c1cc([S+]([O-])CC(F)(F)F)c(C)cc1F)c1ccc(Cl)cc1` (centres unmarked) [Ib-37], 100%; to `CN/C(=N/c1cc(SCC(F)(F)F)c(C)cc1F)c1ccc(Cl)nc1` [Ia-168], 90%.
As to `C#CCN/C(=N\c1cc(SCC(F)(F)F)c(Cl)cc1Cl)C1CC1` [Ia-244], the pest or weed control at 500 g/ha stood at 90%.
For the molecule `CCN(CC)/C(=N/c1cc(SCC(F)(F)F)c(C)cc1F)C(F)(F)F` [Ia-51], the pest or weed control at 500 g/ha amounted to 100%.
On the same count and under the same terms, to `Cc1cc(F)c(/N=C(/N2CCCC2)C(F)(F)F)cc1SCC(F)(F)F` [Ia-180] belongs 90%; to `CN/C(=N\c1cc([S+]([O-])CC(F)(F)F)c(Cl)cc1C)c1cccnc1` (centres unmarked) [Ib-103], 90%.
`N/C(=N\c1cccc(SCC(F)(F)F)c1)c1ccccn1` [Ia-83]: the pest or weed control at 500 g/ha is 100%.
Same read-out and setting: as for `Cc1ccc(/C(=N/c2cc(SCC(F)(F)F)c(C)cc2F)N2CCOCC2)cc1` [Ia-221], the figure is 100%; as for `CN/C(=N\c1cc([S+]([O-])CC(F)(F)F)c(Cl)cc1Cl)c1cccc(Cl)c1` (centres unmarked) [Ib-140], 100%.
For the molecule `CN/C(=N\c1cc([S+]([O-])CC(F)(F)F)c(Cl)cc1Cl)c1ccc(Cl)cc1` (centres unmarked) [Ib-149], the pest or weed control at 500 g/ha turned out to be 90%.
The same measure, in the same setting: as for `N/C(=N\c1cc(SCC(F)(F)F)c(Cl)cc1Cl)C1CCCCC1` [Ia-156], the figure is 100%.
`O=C1CS/C(=N\c2cc([S+]([O-])CC(F)(F)F)c(Cl)cc2F)N1CC(F)(F)F` (centres unmarked) [Ib-120]: the pest or weed control at 500 g/ha came out at 100%.
As to `CN1CCCC/C1=N\c1cc(SCC(F)(F)F)c(Cl)cc1Cl` [Ia-62], the pest or weed control at 500 g/ha came to 90%.
`Cc1cc(Cl)c(SCC(F)(F)F)cc1/N=C(\N)C(F)(F)C(F)(F)F` [Ia-70]: the pest or weed control at 500 g/ha amounted to 100%.
On the same count and under the same terms, to `N/C(=N\c1cc([S+]([O-])CC(F)(F)F)c(Cl)cc1Cl)C1(Cl)CC1` (centres unmarked) [Ib-64] belongs 100%; to `Cc1cc(Cl)c(SCC(F)(F)F)cc1/N=C(\N(C)C)C(F)(F)F` [Ia-53], 100%; to `CCN(C)/C(=N\c1cc(SCC(F)(F)F)c(C)cc1C)c1ccc(Cl)nc1` [Ia-227], 100%.
Turning to `[O-][S+](CC(F)(F)F)c1cc(/N=C(\NCC(F)(F)F)C2CCC2)c(Cl)cc1Cl` (centres unmarked) [Ib-167], the pest or weed control at 500 g/ha is 90%.
For the molecule `CN/C(=N\c1cc([S+]([O-])CC(F)(F)F)c(Cl)cc1Cl)c1ccccn1` (centres unmarked) [Ib-109], the pest or weed control at 500 g/ha was determined as 100%.
The same measure, in the same setting: to `[O-][S+](CC(F)(F)F)c1cc(/N=C(\NCC(F)F)C2CC2)c(Cl)cc1Cl` (centres unmarked) [Ib-129] belongs 100%; to `Cc1cc(F)c(/N=C(\N)C2CCCO2)cc1SCC(F)(F)F` (centres unmarked) [Ia-99], 100%; to `COc1cc(C)c(SCC(F)(F)F)cc1/N=C(/c1ccc(Cl)cc1)N(C)C` [Ia-252], 90%.
The same measure, in the same setting: as for `Cc1cc(C)c([S+]([O-])CC(F)(F)F)cc1/N=C1\SCC(=O)N1C1CC1` (centres unmarked) [Ib-156], the figure is 90%; as for `Cc1cc(C)c([S+]([O-])CC(F)(F)F)cc1/N=C(/c1cccnc1)N(C)C` (centres unmarked) [Ib-98], 100%; as for `CN/C(=N\c1cc([S+]([O-])CC(F)(F)F)c(Cl)cc1Cl)c1ccncc1` (centres unmarked) [Ib-152], 90%.
For `CN/C(=N\c1cc([S+]([O-])CC(F)(F)F)c(C)cc1F)c1ccncc1` (centres unmarked) [Ib-97], the pest or weed control at 500 g/ha was found to be 100%.
With `O=C1CS/C(=N\c2cc([S+]([O-])CC(F)(F)F)ccc2F)N1CC(F)(F)F` (centres unmarked) [Ib-117], the pest or weed control at 500 g/ha was determined as 100%.
Same read-out and setting: to `Cc1cc(F)c(/N=C(/NC(C)(C)C)C(F)(F)F)cc1[S+]([O-])CC(F)(F)F` (centres unmarked) [Ib-50] belongs 100%; to `Cc1cc(F)c(/N=C2\SCC(=O)N2CC(F)F)cc1[S+]([O-])CC(F)(F)F` (centres unmarked) [Ib-116], 90%; to `Cc1cc(F)c(/N=C(/N2CCCC2)C(F)(F)F)cc1[S+]([O-])CC(F)(F)F` (centres unmarked) [Ib-96], 90%.
Take `Cc1cc(F)c(/N=C(\NC2CCS(=O)(=O)C2)C2CC2)cc1SCC(F)(F)F` (centres unmarked) [Ia-247]: the pest or weed control at 500 g/ha turned out to be 100%.
For the molecule `N/C(=N\c1cc(SCC(F)(F)F)c(Cl)cc1Cl)c1cnccn1` [Ia-208], the pest or weed control at 500 g/ha was 100%.
On the same count and under the same terms, as for `Cc1cc(F)c(/N=C(\c2ccc(C(F)(F)F)cc2)N(C)C)cc1[S+]([O-])CC(F)(F)F` (centres unmarked) [Ib-124], the figure is 90%; as for `C=CCN/C(=N\c1cc(SCC(F)(F)F)c(C)cc1F)c1ccc(Cl)nc1` [Ia-150], 100%.
Turning to `Cc1cc(F)c(/N=C2\SCC(=O)N2C2CC2)cc1[S+]([O-])CC(F)(F)F` (centres unmarked) [Ib-135], the pest or weed control at 500 g/ha was 100%.
On the same count and under the same terms, to `CN/C(=N\c1cc(SCC(F)(F)F)c(C)cc1Cl)c1cccnc1` [Ia-64] belongs 100%; to `Cc1cc(F)c(/N=C(\N)c2ccc(Cl)nc2)cc1SCC(F)(F)F` [Ia-46], 100%; to `Cc1cc(F)c(/N=C(/NCC2CC2)C(F)(F)F)cc1[S+]([O-])CC(F)(F)F` (centres unmarked) [Ib-29], 100%.
The same measure, in the same setting: as for `CN/C(=N/c1cc(SCC(F)(F)F)c(Br)cc1F)C(F)(F)F` [Ia-43], the figure is 100%; as for `Cc1cc(C)c(SCC(F)(F)F)cc1/N=C(\NCC(F)F)C1CCCC1` [Ia-257], 90%.
On the same count and under the same terms, to `Cc1cc(F)c(N=C(N)CC#N)cc1SCC(F)(F)F` [Ia-132] belongs 100%.
Turning to `Cc1cc(C)c(SCC(F)(F)F)cc1/N=C1\SCC(=O)N1CC(F)(F)F` [Ia-272], the pest or weed control at 500 g/ha is 100%.
Take `Cc1cc(F)c(/N=C(\N)C2CCC2)cc1[S+]([O-])CC(F)(F)F` (centres unmarked) [Ib-99]: the pest or weed control at 500 g/ha was 100%.
For the molecule `N/C(=N\c1cc(SCC(F)(F)F)c(Cl)cc1Cl)C1CCCO1` (centres unmarked) [Ia-262], the pest or weed control at 500 g/ha is 90%.
Still for that read-out and setting: as for `Cc1cc(C)c([S+]([O-])CC(F)(F)F)cc1/N=C(\NC1CC1)c1ccc(Cl)nc1` (centres unmarked) [Ib-136], the figure is 90%.
Regarding `Cc1cc(F)c(/N=C(/C2CC2)N(C)C)cc1[S+]([O-])CC(F)(F)F` (centres unmarked) [Ib-51], the pest or weed control at 500 g/ha was determined as 100%.
Still for that read-out and setting: as for `CN/C(=N/c1cc([S+]([O-])CC(F)(F)F)c(C)cc1F)c1ccc(C(F)(F)F)cc1` (centres unmarked) [Ib-145], the figure is 90%; as for `Cc1cc(C)c([S+]([O-])CC(F)(F)F)cc1/N=C(\NCC(F)(F)F)C1CCCC1` (centres unmarked) [Ib-155], 90%.
The same measure, in the same setting: as for `Cc1cc(C)c(SCC(F)(F)F)cc1/N=C(/c1ccccc1)N(C)C` [Ia-240], the figure is 90%; as for `Cc1cc(F)c(/N=C(\NC2CC2)c2ccc(Cl)nc2)cc1[S+]([O-])CC(F)(F)F` (centres unmarked) [Ib-88], 100%; as for `CN/C(=N\c1cc(SCC(F)(F)F)c(Cl)cc1Cl)c1ccc(C(F)(F)F)nc1` [Ia-264], 90%.
On the same count and under the same terms, as for `Cc1cc(F)c(/N=C(/NC2COC2)C(F)(F)F)cc1SCC(F)(F)F` [Ia-54], the figure is 100%; as for `N/C(=N\c1cc(SCC(F)(F)F)c(Cl)cc1Cl)C(F)F` [Ia-125], 100%.
On to `CN/C(=N\c1cc(SCC(F)(F)F)c(C)cc1C)c1cccnc1` [Ia-91], for which the pest or weed control at 500 g/ha worked out at 90%.
Still for that read-out and setting: as for `N/C(=N\c1cccc(SCC(F)(F)F)c1)c1cccnc1` [Ia-104], the figure is 90%.
Same read-out and setting: as for `Cc1cc(Cl)c([S+]([O-])CC(F)(F)F)cc1/N=C(\N)C1(Cl)CC1` (centres unmarked) [Ib-138], the figure is 100%; as for `FC(F)CN/C(=N\c1cc(SCC(F)(F)F)c(Cl)cc1Cl)C1CCCC1` [Ia-256], 90%.
Take `Cc1cc(F)c(/N=C(/c2ccccc2)N(C)C)cc1SCC(F)(F)F` [Ia-193]: the pest or weed control at 500 g/ha was determined as 100%.
For `N/C(=N\c1cc([S+]([O-])CC(F)(F)F)c(Cl)cc1Cl)c1ccncn1` (centres unmarked) [Ib-69], the pest or weed control at 500 g/ha is 100%.
Take `CN/C(=N\c1cc(SCC(F)(F)F)c(C)cc1C)c1cccc(Cl)c1` [Ia-265]: the pest or weed control at 500 g/ha was determined as 90%.
Turning to `Cc1cc(F)c(/N=C(\N)c2ccccn2)cc1[S+]([O-])CC(F)(F)F` (centres unmarked) [Ib-45], the pest or weed control at 500 g/ha was 100%.
On the same count and under the same terms, to `CN(C)/C(=N\c1cc(SCC(F)(F)F)c(Cl)cc1Cl)c1ccccc1` [Ia-205] belongs 100%; to `Cc1cc(F)c(/N=C(\c2cccs2)N(C)C)cc1[S+]([O-])CC(F)(F)F` (centres unmarked) [Ib-81], 100%.
Turning to `Cc1cc(F)c(/N=C(\N)c2cccnc2)cc1[S+]([O-])CC(F)(F)F` (centres unmarked) [Ib-63], the pest or weed control at 500 g/ha stood at 100%.
On the same count and under the same terms, to `CN/C(=N/c1cc([S+]([O-])CC(F)(F)F)c(C)cc1F)c1cccc(F)c1` (centres unmarked) [Ib-67] belongs 90%.

Staying with this experiment, now noted: application rate 500 g/ha, after 6 days.
In the case of `Cc1ccc(N=C(N)C(F)(F)F)cc1SCC(F)(F)F` [Ia-25], the “efficacy (spider mites killed)” value is 100%.
